Measurements: patent US9868746B2, “Substituted 5-aminothieno[2,3-C]pyridazine-6-carboxamide analogs as positive allosteric modulators of the muscarinic acetylcholine receptor M4” (Vanderbilt University, priority 2012, dated 2018)

Target: T1, mAChR M4 (Homo sapiens, UniProt P08173)
T1 construct: expressed in transfected cells; host or cells: CHO-K1 cells stably transfected with M4 cDNA and chimeric G-protein Gqi5
T1 sequence (P08173 1-479): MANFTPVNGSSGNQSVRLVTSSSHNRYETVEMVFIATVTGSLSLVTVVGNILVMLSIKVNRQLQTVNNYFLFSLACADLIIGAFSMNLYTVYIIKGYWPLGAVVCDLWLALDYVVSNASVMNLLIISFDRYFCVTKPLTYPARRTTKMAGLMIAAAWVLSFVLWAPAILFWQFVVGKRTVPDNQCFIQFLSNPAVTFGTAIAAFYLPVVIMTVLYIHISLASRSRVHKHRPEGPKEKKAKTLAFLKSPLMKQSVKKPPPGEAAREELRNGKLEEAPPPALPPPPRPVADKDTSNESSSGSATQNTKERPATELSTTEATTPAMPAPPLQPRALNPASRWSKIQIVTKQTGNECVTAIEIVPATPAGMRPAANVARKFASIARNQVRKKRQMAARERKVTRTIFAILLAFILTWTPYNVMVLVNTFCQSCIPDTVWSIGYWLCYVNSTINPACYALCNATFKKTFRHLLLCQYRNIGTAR
Experiment: mAChR M4 cell-based functional assay (calcium mobilization, potentiation of EC20 acetylcholine response)
Settings: for EC50: mAChR M4 cell-based functional assay, >10,000 estimated for low potency compounds without plateau, read-out: EC50

Row | SMILES | Emax at 30 µM (% ACh maximum at 30 μM) | EC50 | Emax (%)* (% ACh maximum at 30 μM)
1 | Cc1nnc2sc(C(=O)N3CC(F)(c4cccc(-c5ccncc5)c4)C3)c(N)c2c1C [Example B323] | 44% | 87 nM | –
2 | Cc1nnc2sc(C(=O)NCc3ccc(-c4ccsc4)cc3)c(N)c2c1C [Example B502] | 66% | 580 nM | –
3 | COc1cccc(S(=O)(=O)N2CCC(NC(=O)c3sc4nnc(C)c(C)c4c3N)C2)c1 (stereo not shown) [Example B214] | 73% | 820 nM | –
4 | Cc1nnc2sc(C(=O)NCc3ccc(-c4cccc5cccnc45)cc3)c(N)c2c1C [Example B453] | 74% | 240 nM | –
5 | Cc1nnc2sc(C(=O)NCc3c(F)ccc(F)c3Cl)c(N)c2c1C [Example B85] | 58% | 47 nM | –
6 | Cc1nnc2sc(C(=O)NCCNC(=O)Oc3ccccc3)c(N)c2c1C [Example B374] | – | > 10000 nM | 33%
7 | Cc1nnc2sc(C(=O)NC3CN(C(=O)c4cccs4)C3)c(N)c2c1C [Example B128] | 78% | 31 nM | –
8 | Cc1nnc2sc(C(=O)NC3CN(Cc4ccc(F)cc4)C3)c(N)c2c1C [Example B46] | 38% | > 10000 nM | –
9 | Cc1nnc2sc(C(=O)N3CC4CN(C(=O)c5ccc(F)cc5)CC4C3)c(N)c2c1C (stereo not shown) [Example B331] | 58% | 3600 nM | –
10 | Cc1nnc2sc(C(=O)NCc3ccc(CN4CCSCC4)cc3)c(N)c2c1C [Example B493] | 68% | 82 nM | –
11 | Cc1nnc2sc(C(=O)NCc3ccc(C4(S(C)(=O)=O)CC4)cc3)c(N)c2c1C [Example B105] | 66% | 55 nM | –
12 | Cc1nnc2sc(C(=O)NCc3ccc(S(=O)(=O)C(C)(F)F)cc3)c(N)c2c1C [Example B118] | 66% | 10 nM | –
13 | Cc1ccc(S(=O)(=O)N2CCC(NC(=O)c3sc4nnc(C)c(C)c4c3N)C2)s1 (stereo not shown) [Example B215] | 75% | 340 nM | –
14 | Cc1nnc2sc(C(=O)NCC3CN(C(=O)OC(C)(C)C)C3)c(N)c2c1C [Example B197] | 35% | > 10000 nM | –
15 | Cc1nnc2sc(C(=O)N3CC(F)(c4ccccc4)C3)c(N)c2c1C [Example B173] | 56% | 170 nM | –
16 | Cc1nnc2sc(C(=O)N[C@@H]3C[C@H]3c3ccc(S(C)(=O)=O)cc3)c(N)c2c1C (single isomer, unassigned) [Example B111] | 60% | 240 nM | –
17 | Cc1nnc2sc(C(=O)NC3CCN(C(=O)c4c(F)cccc4F)C3)c(N)c2c1C (stereo not shown) [Example B243] | 78% | 590 nM | –
18 | Cc1nnc2sc(C(=O)N3CC(F)(c4ccncc4)C3)c(N)c2c1C [Example B312] | 55% | 2800 nM | –
19 | Cc1nnc2sc(C(=O)N3CC4CN(c5ccccn5)CC4C3)c(N)c2c1C (stereo not shown) [Example B287] | 58% | 250 nM | –
20 | COc1cccc(S(=O)(=O)N2CC(NC(=O)c3sc4nnc(C)c(C)c4c3N)C2)c1 [Example B137] | 70% | 100 nM | –
21 | Cc1nnc2sc(C(=O)N3CCC(NS(=O)(=O)CCCc4ccccc4)C3)c(N)c2c1C (stereo not shown) [Example B234] | 50% | 810 nM | –
22 | Cc1nnc2sc(C(=O)NC3CN(c4cccnc4)C3)c(N)c2c1C [Example B479] | 67% | 12 nM | –
23 | Cc1nnc2sc(C(=O)N3CC4CN(C(=O)C(C)C)CC4C3)c(N)c2c1C (stereo not shown) [Example B388] | 55% | > 10000 nM | –
24 | Cc1ccc(CNC(=O)c2sc3nnc(C)c(C)c3c2N)nc1 [Example B470] | 48% | 510 nM | –
25 | Cc1nnc2sc(C(=O)NC3CCCOC3)c(N)c2c1C (stereo not shown) [Example B96] | 64% | > 10000 nM | –

Row | SMILES | Emax at 30 µM (% ACh maximum at 30 μM) | EC50 | Emax (%)* (% ACh maximum at 30 μM)
26 | Cc1cccc(N2CCC(NC(=O)c3sc4nnc(C)c(C)c4c3N)C2)c1 (stereo not shown) [Example B265] | 60% | 120 nM | –
27 | Cc1nnc2sc(C(=O)NC3CN(C(=O)OCc4ccccc4)C3)c(N)c2c1C [Example B124] | 58% | 22 nM | –
28 | Cc1nnc2sc(C(=O)NC3CN(C(=O)c4cccc(Cl)c4)C3)c(N)c2c1C [Example B392] | 60% | 74 nM | –
29 | Cc1nnc2sc(C(=O)NCc3ccnc(F)c3)c(N)c2c1C [Example B452] | 59% | 240 nM | –
30 | COCOc1ccc(CNC(=O)c2sc3nnc(C)c(C)c3c2N)cc1F [Example B162] | 66% | 17 nM | –
31 | Cc1nnc2sc(C(=O)NCc3ccc(-n4ccccc4=O)c(F)c3)c(N)c2c1C [Example B483] | 69% | 47 nM | –
32 | Cc1nnc2sc(C(=O)NCc3ccc4nonc4c3)c(N)c2c1C [Example B43] | 75% | 270 nM | –
33 | Cc1nnc2sc(C(=O)NCc3ccc(-c4ccccc4)cc3)c(N)c2c1C [Example B472] | 64% | 230 nM | –
34 | Cc1nnc2sc(C(=O)N3Cc4ccccc4C3)c(N)c2c1C [Example B280] | 46% | 1700 nM | –
35 | Cc1ccc(OC(=O)N2CC(NC(=O)c3sc4nnc(C)c(C)c4c3N)C2)cc1 [Example B342] | 67% | 9 nM | –
36 | Cc1nnc2sc(C(=O)NC34CC(C3)C4)c(N)c2c1C [Example B248] | 81% | 630 nM | –
37 | Nc1c(C(=O)NCc2cccc(F)c2)sc2nnccc12 [Example B21] | 59% | > 10000 nM | –
38 | Cc1nnc2sc(C(=O)N3CCc4nn(C)cc4C3)c(N)c2c1C [Example B380] | 34% | > 10000 nM | –
39 | COc1cccc(SC2CN(C(=O)c3sc4nnc(C)c(C)c4c3N)C2)c1 [Example B418] | 56% | 160 nM | –
40 | Cc1nnc2sc(C(=O)NCc3ccc(-c4cnc5ccccc5c4)cc3)c(N)c2c1C [Example B497] | 46% | 710 nM | –
41 | Cc1nnc2sc(C(=O)NCc3ccc(-c4cncnc4)cc3)c(N)c2c1C [Example B462] | 65% | 38 nM | –
42 | Nc1c(C(=O)NCc2ccc3c(c2)OCCO3)sc2nnc3c(c12)CCCC3 [Example B56] | 54% | 72 nM | –
43 | Cc1nnc2sc(C(=O)NC3CN(C(=O)CCCc4ccccc4)C3)c(N)c2c1C [Example B120] | 86% | 190 nM | –
44 | Cc1nnc2sc(C(=O)N3CC(NS(=O)(=O)c4cn(C)cn4)C3)c(N)c2c1C [Example B174] | 51% | 6700 nM | –
45 | Cc1nnc2sc(C(=O)NC3CN(S(=O)(=O)c4ccoc4)C3)c(N)c2c1C [Example B100] | 68% | 180 nM | –
46 | Cc1cc(CNC(=O)c2sc3nnc(C)c(C)c3c2N)ccn1 [Example B4] | 96% | 640 nM | –
47 | Cc1nnc2sc(C(=O)NCC3CCS(=O)(=O)CC3)c(N)c2c1C [Example B149] | 44% | > 10000 nM | –
48 | COc1cccc(C2(F)CN(C(=O)c3sc4nnc(C)c(C)c4c3N)C2)c1 [Example B300] | 52% | 330 nM | –
49 | Cc1nnc2sc(C(=O)NCc3ccncn3)c(N)c2c1C [Example B17] | 83% | > 10000 nM | –
50 | Cc1nnc2sc(C(=O)N3CCCn4nccc43)c(N)c2c1C [Example B445] | 31% | > 10000 nM | –
